Results published in the supplement of paper PMC11208160.

Assay: recombinant barcode read abundance after kanamycin selection (control-corrected) (log10(CPM+1)); higher = more efficient recombination; sequences stand for … in AGTGCAGAGAAAATCGGCCAGTTTTCTCTGCCTGCAGTCCGCATGCCGT…AGATTTATGCAGCGGACTGCCTTTCTCCCAAAGTGATAAACCGGACAGTATCATGGACCGGTTTTCCCGGTAATCCGTATTTGCAAGGTTGGTTTCACT; site = the 11-nt target
Procedure, shortened: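 The screen was pooled in E. coli and paired targets with IS621 bridge RNA target-binding loops. Recombination efficiency is taken from barcode counts per million at recombinant junctions, averaged and adjusted against the control. Values, in the form log10(CPM+1), come from duplicate plating on chloramphenicol/ampicillin LB agar or on chloramphenicol/ampicillin/kanamycin with 0.1 mM IPTG.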
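Note: IS621 recombinase and bridge RNA in Escherichia coli cells.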

| Sequence | recombinant barcode read abundance (log10) |
| --- | --- |
| GGCCGGGCTTGGGTTCTAACCTGTTGCGG (site GGCCGGGCTCC) | 0.906 |
| GGCCTCCCTTGGGTTCTAACCTGTTGCAT (site CGCCTCCCTAT) | 0.0328 |
| GGCCTCCCTTGGGTTCTAACCTGTTGCAT (site GGCCTCCCTAT) | 0.743 |
| GGCGACCCTTGGGTTCTAACCTGTTGCCT (site GGCGACCCTAG) | 0.99 |
| GGCGACCCTTGGGTTCTAACCTGTTGCCT (site GGCGTCACTAG) | 0.143 |
| GGCGAGTCTTGGGTTCTAACCTGTTGCTA (site GACGAGTCTTA) | 1.4 |
| GGCGAGTCTTGGGTTCTAACCTGTTGCTA (site GGCGAGTCTTA) | 1.64 |
| GGCGCATCTTGGGTTCTAACCTGTTGCCT (site GGCGCATCTAG) | 0.417 |
| GGCGCATCTTGGGTTCTAACCTGTTGCCT (site GGCGCGTCTAG) | 0.207 |
| GGCGGAGCTTGGGTTCTAACCTGTTGCCG (site CTGCACCCTTA) | 0.0863 |
| GGCGGAGCTTGGGTTCTAACCTGTTGCCG (site GGCGGAGCTCG) | 1.27 |
| GGCGGCTCTTGGGTTCTAACCTGTTGCCT (site ACATAAGCTTA) | 0.103 |
| GGCGGCTCTTGGGTTCTAACCTGTTGCCT (site GGCGGCTCTAG) | 1.42 |
| GGCTATGCTTGGGTTCTAACCTGTTGCCT (site GACTATGCTAG) | 0.143 |
| GGCTATGCTTGGGTTCTAACCTGTTGCCT (site GCCTATGCTAG) | 0.106 |
| GGCTATGCTTGGGTTCTAACCTGTTGCCT (site GGCTATGCTAG) | 0.175 |
| GGCTATGCTTGGGTTCTAACCTGTTGCCT (site GTCTATGCTAG) | 0.0729 |
| GGCTGAGCTTGGGTTCTAACCTGTTGCCT (site GACTGAGCTAC) | 0.0838 |
| GGCTGAGCTTGGGTTCTAACCTGTTGCCT (site GGCTGAGCTAG) | 0.856 |
| GGCTGATCTTGGGTTCTAACCTGTTGCCT (site AGCTGATCTAG) | 0.126 |
| GGCTGATCTTGGGTTCTAACCTGTTGCCT (site CGCTGATCTAG) | 0.309 |
| GGCTGATCTTGGGTTCTAACCTGTTGCCT (site GGCTGATCTAG) | 0.382 |
| GGCTGATCTTGGGTTCTAACCTGTTGCCT (site TGCTGATCTAG) | 0.216 |
| GGCTGCACTTGGGTTCTAACCTGTTGCCT (site GGCGGTACTAG) | 0.504 |
| GGCTGCACTTGGGTTCTAACCTGTTGCCT (site GGCTGCACTAG) | 1.17 |
| GGCTGGGCTTGGGTTCTAACCTGTTGCCG (site GGCTGGGCTCG) | 0.125 |

| Sequence | recombinant barcode read abundance (log10) |
| --- | --- |
| GGCTGGGCTTGGGTTCTAACCTGTTGCCG (site GGTTGGGCTCT) | 0.194 |
| GGCTGTTCTTGGGTTCTAACCTGTTGCCT (site GACTGTTCTAG) | 0.195 |
| GGCTGTTCTTGGGTTCTAACCTGTTGCCT (site GCCTGTTCTAG) | 0.425 |
| GGCTGTTCTTGGGTTCTAACCTGTTGCCT (site GGCTGTTCTAG) | 0.334 |
| GGCTGTTCTTGGGTTCTAACCTGTTGCCT (site GTCTGTTCTAG) | 0.242 |
| GGCTTCCCTTGGGTTCTAACCTGTTGCCT (site GGCATCCCTAG) | 0.299 |
| GGCTTCCCTTGGGTTCTAACCTGTTGCCT (site GGCCTCCCTAG) | 0.855 |
| GGCTTCCCTTGGGTTCTAACCTGTTGCCT (site GGCGTCCCTAG) | 0.141 |
| GGCTTCCCTTGGGTTCTAACCTGTTGCCT (site GGCTTCCCTAG) | 0.415 |
| GGCTTGACTTGGGTTCTAACCTGTTGCCT (site CCAGGTGCTCC) | 0.304 |
| GGCTTGACTTGGGTTCTAACCTGTTGCCT (site GGCTTGACTAG) | 0.694 |
| GGGAACACTTGGGTTCTAACCTGTTGCCA (site GGGAACACTTG) | 1.74 |
| GGGAACACTTGGGTTCTAACCTGTTGCCA (site GGGCACACTTG) | 0.11 |
| GGGAACCCTTGGGTTCTAACCTGTTGCAT (site AGGAACTCTAT) | 0.115 |
| GGGAACCCTTGGGTTCTAACCTGTTGCAT (site GGGAACCCTAT) | 1.96 |
| GGGACGACTTGGGTTCTAACCTGTTGCTT (site GGGACGACTAA) | 1.04 |
| GGGACGACTTGGGTTCTAACCTGTTGCTT (site GGGACGACTTA) | 0.0442 |
| GGGACTACTTGGGTTCTAACCTGTTGCCG (site ACTCGCTCTGT) | 0.0845 |
| GGGACTACTTGGGTTCTAACCTGTTGCCG (site GGGACTACTCG) | 0.876 |
| GGGATCCCTTGGGTTCTAACCTGTTGCGG (site CTCGAATCTAA) | 0.024 |
| GGGATCCCTTGGGTTCTAACCTGTTGCGG (site GGGATCCCTCC) | 2 |
| GGGCAGTCTTGGGTTCTAACCTGTTGCCG (site GGGCAGTCTCG) | 1.78 |
| GGGCAGTCTTGGGTTCTAACCTGTTGCCG (site GGGGCGTCTCG) | 0.14 |
| GGGCCCGCTTGGGTTCTAACCTGTTGCCT (site GGGCCCGCTAG) | 1.84 |
| GGGCCCGCTTGGGTTCTAACCTGTTGCCT (site GGGCCTGCTAG) | 0.154 |
| GGGCCTGCTTGGGTTCTAACCTGTTGCCT (site GGGCCCGCTAG) | 0.645 |

| Sequence | recombinant barcode read abundance (log10) |
| --- | --- |
| GGGCCTGCTTGGGTTCTAACCTGTTGCCT (site GGGCCTGCTAG) | 2.1 |
| GGGGAAGCTTGGGTTCTAACCTGTTGCCT (site GAGGAAGCTAG) | 0.276 |
| GGGGAAGCTTGGGTTCTAACCTGTTGCCT (site GCGGAAGCTAG) | 0.343 |
| GGGGAAGCTTGGGTTCTAACCTGTTGCCT (site GGGGAAGCTAG) | 1.73 |
| GGGGAAGCTTGGGTTCTAACCTGTTGCCT (site GTGGAAGCTAG) | 0.291 |
| GGGGATCCTTGGGTTCTAACCTGTTGCGA (site GGGGAGCCTCC) | 0.00823 |
| GGGGATCCTTGGGTTCTAACCTGTTGCGA (site GGGGATCCTTC) | 2.06 |
| GGGGATTCTTGGGTTCTAACCTGTTGCCT (site GGGGATTCTAG) | 2.05 |
| GGGGATTCTTGGGTTCTAACCTGTTGCCT (site GTGGATGCTAG) | 0.0823 |
| GGGGCCTCTTGGGTTCTAACCTGTTGCAA (site AGGGCCTCTCT) | 0.474 |
| GGGGCCTCTTGGGTTCTAACCTGTTGCAA (site GGGGCCTCTTT) | 2.56 |
| GGGGCCTCTTGGGTTCTAACCTGTTGCTG (site GGAGCCTCTGA) | 0.0595 |
| GGGGCCTCTTGGGTTCTAACCTGTTGCTG (site GGGGCCTCTCA) | 3.02 |
| GGGGCTACTTGGGTTCTAACCTGTTGCAC (site GGGGCTACTAG) | 0.58 |
| GGGGCTACTTGGGTTCTAACCTGTTGCAC (site GGGGCTACTGT) | 2.62 |
| GGGGCTTCTTGGGTTCTAACCTGTTGCTT (site GGGGCATCTAA) | 0.129 |
| GGGGCTTCTTGGGTTCTAACCTGTTGCTT (site GGGGCCTCTAA) | 0.762 |
| GGGGCTTCTTGGGTTCTAACCTGTTGCTT (site GGGGCGTCTAA) | 0.343 |
| GGGGCTTCTTGGGTTCTAACCTGTTGCTT (site GGGGCTTCTAA) | 0.913 |
| GGGGTAACTTGGGTTCTAACCTGTTGCCT (site GGGACAACTAG) | 0.0486 |
| GGGGTAACTTGGGTTCTAACCTGTTGCCT (site GGGGTAACTAG) | 0.58 |
| GGGGTCCCTTGGGTTCTAACCTGTTGCCA (site GAGATCCCTTG) | 0.247 |
| GGGGTCCCTTGGGTTCTAACCTGTTGCCA (site GGGGTCCCTTG) | 1.8 |
| GGGTACACTTGGGTTCTAACCTGTTGCTA (site AGGTAGACTTA) | 0.0922 |
| GGGTACACTTGGGTTCTAACCTGTTGCTA (site GGGTACACTTA) | 2.12 |
